How the values were obtained:
[1] = target: T1, recombinant human mGlu7 receptor (Homo sapiens, UniProt Q14831); test: NAM mGlu7 activity, forskolin-induced cAMP (HTRF) in T-REx 293 cell line; format: cell-based; conditions: T-REx 293 cells expressing human mGlu7; 5 µM LSP4-2022 (EC80), 5 µM forskolin
T1 construct: expressed in transfected cells; host or cells: T-REx 293 (tetracycline-inducible)

[2] = target: T2, CYP2D6 (Homo sapiens, UniProt P10635); test: CYP inhibition assay, recombinant enzyme, fluorescence; format: in vitro ADME; conditions: test concentrations 1.1, 3.3 and 10 μM; read-out: Cytochrome P450 2D6 IC50
T2 construct: purchased BD Biosciences
Experimental: (§1) CYP inhibition was performed with the recombinant enzymes CYP1A2, CYP2B6, CYP2C9, CYP2C19, CYP2D6, and CYP3A4 obtained from BD Biosciences. Compounds for CYP inhibition testing were prepared as 10 mM stock solutions in DMSO. Isoform-specific substrates were incubated at 37 °C individually with P450 enzymes (Table 5) and a range of test compound concentrations (1.1, 3.3 and 10 μM) in duplicate. Each isoform was tested separately with one reference compound, a known positive control inhibitor. During preincubation, the 96-well black plates were scanned with a fluorescence plate reader to eliminate false results originating from the autofluorescence of the test compounds. At the end of the incubation, product formation was monitored with fluorescence detection. A decrease in the formation of the metabolite compared to the “no inhibition” control samples was used to calculate the IC50 value.

[3] = target: T3, CYP2B6 (Homo sapiens, UniProt P20813); test: as above; format: in vitro ADME; conditions: test concentrations 1.1, 3.3 and 10 μM; read-out: Cytochrome P450 2B6 IC50
T3 construct: purchased BD Biosciences
T3 sequence (P20813 1-491): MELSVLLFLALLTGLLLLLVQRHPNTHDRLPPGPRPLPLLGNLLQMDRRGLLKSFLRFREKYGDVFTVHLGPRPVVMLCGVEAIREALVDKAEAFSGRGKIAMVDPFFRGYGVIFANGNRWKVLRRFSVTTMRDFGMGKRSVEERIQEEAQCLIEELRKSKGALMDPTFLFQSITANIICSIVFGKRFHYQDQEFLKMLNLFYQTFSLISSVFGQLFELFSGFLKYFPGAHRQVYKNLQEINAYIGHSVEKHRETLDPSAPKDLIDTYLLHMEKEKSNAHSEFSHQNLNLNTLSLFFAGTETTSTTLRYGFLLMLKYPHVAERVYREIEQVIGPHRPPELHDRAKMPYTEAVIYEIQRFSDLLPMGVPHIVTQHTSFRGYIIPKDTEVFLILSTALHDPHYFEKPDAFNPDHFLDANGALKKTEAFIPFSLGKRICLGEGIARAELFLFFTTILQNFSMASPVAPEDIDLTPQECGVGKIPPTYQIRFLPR
Experimental: as §1

[4] = target: T4, human mGlu8 receptor (Homo sapiens, UniProt O00222); test: mGlu8 receptor selectivity, cAMP accumulation screening at 10 µM; format: cell-based; conditions: group III mGlu receptors
T4 construct: expressed in transfected cells; host or cells: T-REx 293 (tetracycline-inducible)
Experimental: The cell lines with the tetracycline-inducible expression of human metabotropic receptors 4, 7, and 8 were described in detail by Chruścicka et al. (mGlu4 receptor NM_000841, mGlu7 receptor NM_000844.2, and mGlu8 receptor NM_000845). Cells were grown under standard cell culture conditions (37 °C, 5% CO2) in DMEM supplemented with 10% tetracycline-free FBS. The expression was induced through the addition of tetracycline to the culture medium at 0.75 μg/mL.
The determination of the intracellular cAMP through homogeneous time-resolved fluorescence (HTRF) was described in detail previously. […] The intracellular concentration of cyclic AMP was measured by means of a cAMP Gi HTRF kit from Cisbio, according to the manufacturer’s instructions. After 1 h of incubation at room temperature, the fluorescence at 620 nm and 665 nm was read (Tecan Infinite M1000). The results were calculated as the 665 nm/620 nm ratio multiplied by 10^4. […] Data were analyzed using GraphPad Prism version 5.04 for Windows (GraphPad Software, San Diego, USA).
Firstly, all compounds were screened at 10 μM using three cell lines expressing the mGlu4/7/8 receptor to evaluate selectivity. […] For compounds that passed the screening procedure, the dose–response curve in the presence of LSP4-2022 in 5 μM was evaluated compared to reference NAM ADX71743. […]

[5] = system: animal models of schizophrenia; conditions: cited from earlier work

T1 sequence (Q14831 35-915): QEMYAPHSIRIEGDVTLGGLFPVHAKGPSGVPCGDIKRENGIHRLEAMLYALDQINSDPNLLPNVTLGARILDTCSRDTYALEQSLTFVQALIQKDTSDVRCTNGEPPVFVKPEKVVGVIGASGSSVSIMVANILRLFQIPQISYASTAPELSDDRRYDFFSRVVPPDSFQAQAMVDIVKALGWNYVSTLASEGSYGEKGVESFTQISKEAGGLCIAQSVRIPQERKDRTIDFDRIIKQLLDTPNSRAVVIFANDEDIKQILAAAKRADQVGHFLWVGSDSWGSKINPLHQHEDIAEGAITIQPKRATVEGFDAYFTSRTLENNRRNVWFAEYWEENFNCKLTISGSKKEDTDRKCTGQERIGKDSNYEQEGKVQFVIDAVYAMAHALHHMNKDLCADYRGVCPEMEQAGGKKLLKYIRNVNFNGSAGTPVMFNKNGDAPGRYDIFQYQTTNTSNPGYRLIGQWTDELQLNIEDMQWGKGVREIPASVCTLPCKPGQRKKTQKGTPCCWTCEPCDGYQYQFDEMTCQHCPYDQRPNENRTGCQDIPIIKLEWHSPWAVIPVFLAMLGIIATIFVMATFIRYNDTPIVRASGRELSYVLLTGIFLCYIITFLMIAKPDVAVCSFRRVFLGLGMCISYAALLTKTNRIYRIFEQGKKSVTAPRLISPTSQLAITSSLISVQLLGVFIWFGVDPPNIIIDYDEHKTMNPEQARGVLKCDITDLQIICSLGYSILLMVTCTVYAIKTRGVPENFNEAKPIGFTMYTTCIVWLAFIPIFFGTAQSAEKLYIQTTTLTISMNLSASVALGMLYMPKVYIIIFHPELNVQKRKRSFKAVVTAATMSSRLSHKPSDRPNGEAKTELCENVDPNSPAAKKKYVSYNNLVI
T2 sequence (P10635 whole entry): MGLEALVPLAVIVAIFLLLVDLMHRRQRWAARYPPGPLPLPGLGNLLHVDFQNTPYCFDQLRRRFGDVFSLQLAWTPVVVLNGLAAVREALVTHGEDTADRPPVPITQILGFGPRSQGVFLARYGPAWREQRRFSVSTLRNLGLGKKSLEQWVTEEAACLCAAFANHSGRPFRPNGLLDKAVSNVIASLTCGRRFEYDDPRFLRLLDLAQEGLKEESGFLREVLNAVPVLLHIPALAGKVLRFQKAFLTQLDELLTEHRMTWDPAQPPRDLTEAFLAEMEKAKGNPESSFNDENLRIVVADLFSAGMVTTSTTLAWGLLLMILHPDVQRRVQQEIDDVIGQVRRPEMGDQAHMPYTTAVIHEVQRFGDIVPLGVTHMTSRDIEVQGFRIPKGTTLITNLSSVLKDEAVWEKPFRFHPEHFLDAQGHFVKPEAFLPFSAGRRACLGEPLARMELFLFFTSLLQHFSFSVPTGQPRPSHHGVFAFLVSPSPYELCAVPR
T4 sequence (O00222 34-908): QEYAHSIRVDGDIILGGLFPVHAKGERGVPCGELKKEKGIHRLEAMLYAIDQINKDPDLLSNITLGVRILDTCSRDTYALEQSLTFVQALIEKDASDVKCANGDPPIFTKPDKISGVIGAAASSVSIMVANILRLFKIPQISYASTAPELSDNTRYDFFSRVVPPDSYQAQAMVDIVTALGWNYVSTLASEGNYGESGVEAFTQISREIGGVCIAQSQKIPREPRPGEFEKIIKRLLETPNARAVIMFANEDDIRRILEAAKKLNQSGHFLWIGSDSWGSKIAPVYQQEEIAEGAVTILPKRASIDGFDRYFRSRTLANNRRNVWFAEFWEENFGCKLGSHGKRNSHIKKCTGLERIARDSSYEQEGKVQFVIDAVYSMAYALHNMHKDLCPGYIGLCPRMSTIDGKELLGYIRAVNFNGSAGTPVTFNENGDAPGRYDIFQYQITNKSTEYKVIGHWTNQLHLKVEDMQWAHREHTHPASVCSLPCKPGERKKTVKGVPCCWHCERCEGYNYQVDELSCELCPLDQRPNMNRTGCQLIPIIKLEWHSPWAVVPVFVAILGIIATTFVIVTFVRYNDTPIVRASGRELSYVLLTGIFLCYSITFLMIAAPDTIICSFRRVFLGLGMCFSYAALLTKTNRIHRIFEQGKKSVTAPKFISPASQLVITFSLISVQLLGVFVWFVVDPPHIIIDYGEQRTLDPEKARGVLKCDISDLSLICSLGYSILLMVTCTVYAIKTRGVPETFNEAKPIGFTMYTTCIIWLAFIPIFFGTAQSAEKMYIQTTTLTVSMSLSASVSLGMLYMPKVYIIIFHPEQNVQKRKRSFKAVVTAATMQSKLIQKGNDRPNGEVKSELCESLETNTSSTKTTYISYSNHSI

| IC50 [1] [µM] | IC50 [2] [µM] | IC50 [3] [µM] | selectivity over mGlu8 [4] | SMILES | DOI-induced head twitches [5] | MK-801-induced disruptions in social interaction [5] | cognitive impairment in novel object recognition [5] | prepulse inhibition (PPI) [5] | activity in animal models of schizophrenia ([5]; mGlu7 NAMs) |
| --- | --- | --- | --- | --- | --- | --- | --- | --- | --- |
| 4.65 ± 3.46 | > 10 | > 10 | – | Cn1c(-c2ccccc2Cl)nc2ccc(-c3ccccc3)cc2c1=O [ALX-065, 2-(2-chlorophenyl)-3-methyl-6-phenylquinazolin-4(3H)-one] | – | – | – | – | – |
| 6.14 ± 3.42 | > 10 | > 10 | selective | COc1cccc(-c2ccc3nc(-c4ccccc4Cl)n(C)c(=O)c3c2)c1OC [ALX-171, 2-(2-chlorophenyl)-6-(2,3-dimethoxyphenyl)-3-methylquinazolin-4(3H)-one] | – | – | – | – | – |
| – | – | – | – | CCc1nc2c(o1)CC(c1ccc(C)cc1C)CC2=O (stereo not drawn) [ADX71743, reference compound] | active | active | active | active | antipsychotic activity |
